Results from patent publication US20250313535A1, “ALPHA 4 BETA 7 INTEGRIN MODULATORS AND USES THEREOF” (DICE MOLECULES SV, INC., priority 2022, published 2025).

Tests used:
α4β7 integrin = α4β7 integrin (Homo sapiens (Human), UniProt P13612+P26010); experiment: Integrin Adhesion Assay: Protocol 1 (MAdCAM-coated plate, RPMI-8866 cells, CellTiter GLO readout); type: cell-based; conditions: integrin adhesion assay; determined by at least one of the assays described (protocol not specified)
Summary of the method: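 RPMI-8866 cells (2×10^6 per mL) added with compounds (1% DMSO) to MAdCAM-coated wells blocked in HEPES/NaCl buffer with 1 mM MnCl2, 0.1 mM CaCl2, 1% BSA; 1 h at 37° C, 5% CO2. After four washes, bound cells read by CellTiter GLO luminescence; % inhibition vs DMSO and control wells, 4-parameter fit.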

α4β1 integrin = α4β1 integrin (Homo sapiens (Human), UniProt P05556+P13612); experiment: Integrin Adhesion Assay: Protocol 2 (VCAM-coated plate, Jurkat cells, CellTiter GLO readout); type: cell-based; conditions: determined by at least one of the assays described (protocol not specified)
Method: α4β7 and α4β1 inhibition was evaluated in vitro using at least one of the following procedures:
Integrin Adhesion Assay: Protocol 2
VCAM (R&D Systems, 0.1 ug) was diluted in 50 μL PBS, added to each well of an opaque ELISA plate (Thermo), and incubated overnight at 4° C. Coated plates were washed once with PBS and then blocked with 200 μL of assay buffer (10 mM HEPES, 150 mM NaCl, 1 mM MnCl2, 0.1 mM CaCl2), 1% BSA) for 1 hour at 37° C. and 5% CO2. After incubation, buffer was aspirated from the plates and 50 μL of fresh assay buffer was added. Compounds were added by compounds dispenser (Tecan) and DMSO concentration was normalized to 1% across each plate. 50 μL of Jurkat cells (2×10^6 per mL) were added to each well and the plates were incubated for 1 hour at 37° C. and 5% CO2. After incubation, plates were allowed to cool to RT for 10 minutes before being washed four times in assay buffer by an automated plate washer (BioTek). After washing, 100 μL of a 1:1 mixture of assay buffer and CellTiter GLO 2.0 reagent (Promega) were added to each well. Plates were mixed for 2 minutes at 1000 rpm and then allowed to incubate an additional 10 minutes before reading out luminescence on a Tecan Spark plate reader. Raw data was converted to percent inhibition based on DMSO only and control compound wells, and curves were analyzed by 4-parameter fit within Dotmatics software.

Sequence of α4β7 integrin (P13612 34-1032): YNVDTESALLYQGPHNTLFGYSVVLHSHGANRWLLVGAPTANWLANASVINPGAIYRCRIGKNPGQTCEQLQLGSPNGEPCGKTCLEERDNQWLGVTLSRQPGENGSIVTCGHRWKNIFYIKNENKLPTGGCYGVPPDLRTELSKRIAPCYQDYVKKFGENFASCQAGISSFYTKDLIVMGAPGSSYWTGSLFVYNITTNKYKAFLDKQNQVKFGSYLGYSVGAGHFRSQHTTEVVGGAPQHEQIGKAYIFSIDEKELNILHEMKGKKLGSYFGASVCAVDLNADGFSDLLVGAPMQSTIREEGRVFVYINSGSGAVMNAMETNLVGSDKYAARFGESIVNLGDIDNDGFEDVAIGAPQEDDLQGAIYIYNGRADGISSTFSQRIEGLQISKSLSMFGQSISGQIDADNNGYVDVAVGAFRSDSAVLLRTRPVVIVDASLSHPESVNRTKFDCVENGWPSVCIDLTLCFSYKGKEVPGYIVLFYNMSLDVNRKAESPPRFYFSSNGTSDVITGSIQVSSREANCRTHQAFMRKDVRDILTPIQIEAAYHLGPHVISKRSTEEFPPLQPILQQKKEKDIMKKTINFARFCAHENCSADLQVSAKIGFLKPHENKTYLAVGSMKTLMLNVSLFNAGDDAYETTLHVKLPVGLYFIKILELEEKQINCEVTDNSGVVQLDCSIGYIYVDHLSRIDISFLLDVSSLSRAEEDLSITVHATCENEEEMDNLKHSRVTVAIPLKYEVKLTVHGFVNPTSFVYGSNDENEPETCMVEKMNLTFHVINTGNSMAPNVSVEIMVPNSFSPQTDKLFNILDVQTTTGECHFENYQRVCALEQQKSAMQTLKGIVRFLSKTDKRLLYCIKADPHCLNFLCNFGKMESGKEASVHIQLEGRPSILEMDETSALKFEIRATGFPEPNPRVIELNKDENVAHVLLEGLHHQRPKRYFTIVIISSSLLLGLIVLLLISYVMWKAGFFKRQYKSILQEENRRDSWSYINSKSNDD
Sequence of α4β7 integrin (P26010 20-798): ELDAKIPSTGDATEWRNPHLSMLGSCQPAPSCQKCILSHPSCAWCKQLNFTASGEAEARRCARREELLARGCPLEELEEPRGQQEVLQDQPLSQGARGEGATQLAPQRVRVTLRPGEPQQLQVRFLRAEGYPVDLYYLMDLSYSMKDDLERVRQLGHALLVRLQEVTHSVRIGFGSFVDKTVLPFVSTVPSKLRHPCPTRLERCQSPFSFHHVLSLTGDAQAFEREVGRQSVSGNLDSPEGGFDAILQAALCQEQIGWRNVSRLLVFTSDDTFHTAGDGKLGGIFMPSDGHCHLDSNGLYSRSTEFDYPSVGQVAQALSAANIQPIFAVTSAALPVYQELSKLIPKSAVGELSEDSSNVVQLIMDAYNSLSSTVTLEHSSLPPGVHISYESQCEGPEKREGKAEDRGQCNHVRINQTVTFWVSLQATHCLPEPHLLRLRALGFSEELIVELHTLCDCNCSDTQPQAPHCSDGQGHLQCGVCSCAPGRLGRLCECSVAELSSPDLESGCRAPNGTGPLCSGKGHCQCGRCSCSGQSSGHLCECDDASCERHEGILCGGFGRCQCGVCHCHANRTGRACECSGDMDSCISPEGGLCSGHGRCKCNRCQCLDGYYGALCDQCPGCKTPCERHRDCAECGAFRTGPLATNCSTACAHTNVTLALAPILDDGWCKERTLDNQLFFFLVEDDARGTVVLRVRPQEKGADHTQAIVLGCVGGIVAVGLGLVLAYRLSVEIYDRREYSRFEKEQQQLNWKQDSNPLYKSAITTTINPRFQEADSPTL
Sequence of α4β1 integrin (P13612 34-1032): as the sequence (P13612 34-1032) above
Sequence of α4β1 integrin (P05556 21-798): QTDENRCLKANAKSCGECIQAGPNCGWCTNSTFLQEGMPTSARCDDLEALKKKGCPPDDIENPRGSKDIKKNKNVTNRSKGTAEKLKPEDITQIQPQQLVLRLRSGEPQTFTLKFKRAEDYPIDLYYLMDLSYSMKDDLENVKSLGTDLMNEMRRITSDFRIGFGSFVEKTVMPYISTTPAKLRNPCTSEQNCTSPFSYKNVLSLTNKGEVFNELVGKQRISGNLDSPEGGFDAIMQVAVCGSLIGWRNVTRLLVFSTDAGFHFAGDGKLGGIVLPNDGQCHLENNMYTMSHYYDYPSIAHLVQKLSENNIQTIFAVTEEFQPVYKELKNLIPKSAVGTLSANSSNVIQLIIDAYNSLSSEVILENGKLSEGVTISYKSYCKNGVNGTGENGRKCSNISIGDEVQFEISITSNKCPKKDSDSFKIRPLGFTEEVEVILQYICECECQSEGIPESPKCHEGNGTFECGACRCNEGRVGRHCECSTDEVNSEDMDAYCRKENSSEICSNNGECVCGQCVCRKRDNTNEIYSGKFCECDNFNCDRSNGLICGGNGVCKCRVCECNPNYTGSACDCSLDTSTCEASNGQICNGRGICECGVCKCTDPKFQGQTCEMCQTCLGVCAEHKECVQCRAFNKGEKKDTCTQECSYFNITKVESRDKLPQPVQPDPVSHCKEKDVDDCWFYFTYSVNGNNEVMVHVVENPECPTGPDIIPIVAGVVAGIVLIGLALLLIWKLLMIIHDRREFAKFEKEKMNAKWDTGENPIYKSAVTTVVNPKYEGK

SMILES	IC50 (α4β7 integrin) [nM]	IC50 (α4β1 integrin) [nM]
Cn1ccc(C(F)(F)F)c(-c2nccc3c(C[C@H](NC(=O)c4c(F)cc(CN5CCOCC5)cc4F)C(=O)O)cccc23)c1=O [Compound 246]	100 to 1000	> 1000
CC(C)C1(C(=O)N[C@@H](Cc2cccc3c(-n4c(=O)ccn(C)c4=O)cccc23)C(=O)O)CCN(CC(F)(F)F)CC1 [Compound 153]	10 to 100	100 to 1000
Cn1ccc(=O)n(-c2cccc3c(C[C@H](NC(=O)c4c(F)cccc4CN4CCC4)C(=O)O)cccc23)c1=O [Compound 7]	10 to 100	> 1000
Cn1ccc(=O)n(-c2cccc3c(C[C@H](NC(=O)c4c(F)cc(NCC(F)(F)F)cc4F)C(=O)O)cccc23)c1=O [Compound 114]	< 10	> 1000
Cn1ccc(=O)n(-c2cccc3c(C[C@H](NC(=O)[C@H]4C[C@H]5CC[C@@H](C4)N5CC(F)(F)F)C(=O)O)cccc23)c1=O [Compound 154]	> 1000	> 1000
Cn1ccc(=O)n(-c2cccc3c(C[C@H](NC(=O)c4c(F)cc5nn(CC(F)(F)F)cc5c4F)C(=O)O)cccc23)c1=O [Compound 15]	< 10	100 to 1000
Cn1ccc(=O)n(-c2cccc3c(C[C@H](NC(=O)[C@@H]4C[C@H]5CC[C@@H](C4)N5CC(F)(F)F)C(=O)O)cccc23)c1=O [Compound 166]	> 1000	> 1000
CCN1CCC(C(=O)N[C@@H](Cc2cccc3c(-n4c(=O)ccn(C)c4=O)cccc23)C(=O)O)CC1 [Compound 36]	> 1000	> 1000
Cn1ccc(C(F)(F)F)c(-c2nccc3c(C[C@H](NC(=O)c4c(F)cc(N5CCOC[C@@H]5C5CC5)cc4F)C(=O)O)cccc23)c1=O [Compound 251]	< 10	> 1000
Cn1ccc(C(F)(F)F)c(-c2nccc3c(C[C@H](NC(=O)c4c(F)cc(N5CCOC[C@H]5C5CC5)cc4F)C(=O)O)cccc23)c1=O [Compound 257]	10 to 100	> 1000
O=C(N[C@@H](Cc1cccc2c(-c3cccc4ccncc34)nccc12)C(=O)O)c1c(F)cc(N2CCOC[C@@H]2C(F)(F)F)cc1CN1CCCC1 [Compound 255]	< 10	100 to 1000
O=C(N[C@@H](Cc1cccc2c(-c3cccc4ccncc34)cccc12)C(=O)O)c1c(F)cc(N2CCOC[C@@H]2C(F)(F)F)cc1CN1CCCC1 [Compound 148]	< 10	> 1000
Cn1c(=O)c2ccccc2n(-c2cccc3c(C[C@H](NC(=O)c4c(F)cccc4F)C(=O)O)cccc23)c1=O [Compound 3]	10 to 100	> 1000
Cn1ccc(=O)n(-c2cccc3c(C[C@H](NC(=O)c4c(F)cc(N(CC(F)(F)F)CC(F)(F)F)cc4F)C(=O)O)cccc23)c1=O [Compound 130]	< 10	> 1000
Cn1ccc(=O)n(-c2cccc3c(C[C@H](NC(=O)c4c(F)cc(N5CCOC[C@@H]5C(F)(F)F)cc4CN4CCCC4)C(=O)O)cccc23)c1=O [Compound 48]	< 10	100 to 1000
Cn1ccc(C(F)(F)F)c(-c2nccc3c(C[C@H](NC(=O)c4c(F)cc(N5CCOC[C@@H]5C(F)(F)F)cc4CN4CCC(F)(F)CC4)C(=O)O)cccc23)c1=O [Compound 226]	< 10	> 1000
Cn1ccc(=O)n(-c2cccc3c(C[C@H](NC(=O)c4c(F)cc(NS(=O)(=O)C(F)(F)F)cc4F)C(=O)O)cccc23)c1=O [Compound 8]	< 10	100 to 1000
Cn1ccc(=O)n(-c2cccc3c(C[C@H](NC(=O)C45C[C@H]6C[C@@H](C4)C[C@@H](C5)C6)C(=O)O)cccc23)c1=O [Compound 53]	100 to 1000	> 1000
Cn1ccc(=O)n(-c2cccc3c(C[C@H](NC(=O)c4c(F)cc(NS(=O)(=O)c5ccccc5)cc4F)C(=O)O)cccc23)c1=O [Compound 9]	< 10	> 1000
Cn1ccc(=O)n([C@H]2CCc3c(C[C@H](NC(=O)c4c(F)cccc4F)C(=O)O)cccc32)c1=O (single isomer, unassigned) [Compound 282]	100 to 1000	> 1000
Cn1ccc(=O)n(-c2cccc3c(C[C@H](NC(=O)C4(C)CCN(CC(F)F)CC4)C(=O)O)cccc23)c1=O [Compound 58]	10 to 100	> 1000
Cn1ccc(=O)n(-c2cccc3c(C[C@H](NC(=O)C45CCC(C)(CC4)CC5)C(=O)O)cccc23)c1=O [Compound 52]	100 to 1000	> 1000
Cn1ccc(=O)n(-c2cccc3c(C[C@H](NC(=O)c4c(F)ccc(OC(F)F)c4F)C(=O)O)cccc23)c1=O [Compound 31]	10 to 100	100 to 1000

SMILES	IC50 (α4β7 integrin) [nM]	IC50 (α4β1 integrin) [nM]
CC[C@@H](Nc1cc(F)c(C(=O)N[C@@H](Cc2cccc3c(-n4c(=O)ccn(C)c4=O)cccc23)C(=O)O)c(F)c1)C(F)(F)F [Compound 112]	< 10	> 1000
O=C(N[C@@H](Cc1cccc2c(-c3nccc4ccncc34)cccc12)C(=O)O)c1c(F)cc(CN2CCOCC2)cc1F [Compound 38]	100 to 1000	> 1000
CCOCc1cc(OC)c(-c2cccc3c(C[C@H](NC(=O)c4c(F)cccc4F)C(=O)O)cccc23)c(OC)c1 [Compound 172]	10 to 100	100 to 1000
Cn1ccc(=O)n(-c2cccc3c(C[C@H](NCc4ccc(N5CCOCC5)cc4)C(=O)O)cccc23)c1=O [Compound 70]	> 1000	> 1000
Cn1ccc(=O)n(-c2cccc3c(C[C@H](NC(=O)c4c(F)cc(N5CCOC[C@H]5C(F)(F)F)cc4F)C(=O)O)cccc23)c1=O [Compound 170]	10 to 100	> 1000
Cn1ccc(=O)n(-c2cccc3c(C[C@H](NC(=O)c4c(F)cc(N5CCOC[C@@H]5C(F)(F)F)cc4F)C(=O)O)cccc23)c1=O [Compound 108]	< 10	100 to 1000
Cn1ccc(=O)n(-c2cccc3c(C[C@H](NC(=O)C(F)(F)Sc4ccc(Cl)cc4Cl)C(=O)O)cccc23)c1=O [Compound 76]	> 1000	> 1000
Cn1ccc(=O)n(-c2cccc3c(C[C@H](NC(=O)c4c(F)cc(NCC(F)(F)F)cc4CN4CCOCC4)C(=O)O)cccc23)c1=O [Compound 19]	< 10	100 to 1000
Cn1ccc(=O)n(-c2cccc3c(C[C@H](NC(=O)c4cc(C(=O)N5CCc6ccccc6C5)n(-c5ccccc5)n4)C(=O)O)cccc23)c1=O [Compound 44]	> 1000	> 1000
Cn1ccc(=O)n(-c2cccc3c(C[C@H](NC(=O)C(C)(C)CSc4cccc(C(F)(F)F)c4)C(=O)O)cccc23)c1=O [Compound 177]	> 1000	> 1000
Cn1ccc(=O)n(-c2cccc3c(C[C@H](NC(=O)c4c(F)cc5c(ccn5C)c4F)C(=O)O)cccc23)c1=O [Compound 27]	10 to 100	> 1000
CCC1(C(=O)N[C@@H](Cc2cccc3c(-n4c(=O)ccn(C)c4=O)cccc23)C(=O)O)CCN(CC(F)(F)F)CC1 [Compound 152]	10 to 100	100 to 1000
C/C=C/c1cn(C)c(=O)n(-c2cccc3c(C[C@H](NC(=O)c4c(F)cccc4F)C(=O)O)cccc23)c1=O [Compound 141]	10 to 100	> 1000
O=C(N[C@@H](Cc1cccc2c(-c3cccc4ccncc34)cccc12)C(=O)O)c1c(F)cc(NCC(F)(F)F)cc1CN1CCCC1 [Compound 150]	< 10	> 1000
COC(=O)[C@H](Cc1cccc2c(-n3c(=O)ccn(C)c3=O)cccc12)NC(=O)c1c(F)cccc1CN1CCOCC1 [Compound 168]	100 to 1000	> 1000
Cn1ccc(C(F)(F)F)c(-c2nccc3c(C[C@H](NC(=O)c4c(F)cc5nc(CC(F)(F)F)[nH]c5c4F)C(=O)O)cccc23)c1=O [Compound 213]	10 to 100	> 1000
Cn1ccc(=O)n(-c2cccc3c(C[C@H](NC(=O)C4(C)CCN(CC(F)(F)F)CC4)C(=O)O)cccc23)c1=O [Compound 18]	10 to 100	> 1000
CCCS(=O)(=O)Nc1ccc(F)c(C(=O)N[C@@H](Cc2cccc3c(-n4c(=O)ccn(C)c4=O)cccc23)C(=O)O)c1F [Compound 132]	< 10	100 to 1000
O=C(N[C@@H](Cc1cccc2c(-c3nccc4ccncc34)cccc12)C(=O)O)c1c(F)cc(N2CCOC[C@@H]2CC(F)F)cc1F [Compound 39]	10 to 100	> 1000
CCOCc1cc(OC)c(-c2nccc3c(C[C@H](NC(=O)c4c(F)cccc4F)C(=O)O)cccc23)c(OC)c1 [Compound 260]	10 to 100	100 to 1000
Cn1ccc(=O)n(-c2cccc3c(C[C@H](NC(=O)c4c(F)cc5cnn(CC(F)(F)F)c5c4F)C(=O)O)cccc23)c1=O [Compound 16]	< 10	100 to 1000
O=C(N[C@@H](Cc1cccc2c(-c3nccc4ccncc34)cccc12)C(=O)O)c1c(F)cc(N2CCOC[C@@H]2C(F)(F)F)cc1CN1CCOCC1 [Compound 129]	< 10	100 to 1000
